Assay results published in patent US20130005699A1, “METHODS AND PRODUCTS FOR TREATMENT OF DISEASES” (DMI ACQUISITION CORP., priority 2009, published 2013).

Tests used:
RhoA = assay: Rho activation assay (GLISA) in retinal endothelial cells; assay type: cell-based, human
Description: This experiment was performed using a commercially-available Rho activation assay (GLISA) purchased from Cytoskeleton, Denver, Colo., following the manufacturer's protocol. […] Test compounds diluted in HBSS were placed in the incubator to equilibrate before addition to the cells. Then, 150 μl of each test compound was added to the appropriate culture wells, and the plates were incubated in the incubator for an additional 15 minutes. Then, thrombin was added to appropriate wells. After 1 minute, the cells were washed one time with 1.5 ml phosphate buffered saline and were then lysed with 100 μl GLISA lysis buffer supplemented with protease inhibitors. The extracts were scraped, transferred to microcentrifuge tubes and transferred to ice to preserve the active form of RhoA. All extracts were then cleared of debris by spinning at 10,000 rpms for 2 minutes at 4° C. The supernatants were transferred to new tubes and placed back on ice. Aliquots of each extract were removed for the GLISA assay and for protein determinations. All protein concentrations were within 10%, and the extracts were used at the achieved concentrations (equates to 15 μg total protein per well). The GLISA assay was performed using the reagents supplied in the kit.

[1] = test system: human retinal endothelial cells; assay: TER of retinal endothelial cell monolayers with danazol, steroid receptor antagonists and hormones (Example 10); details: for TER at 5 minutes: None 250.30; for TER at 60 minutes: None 251.00; for TER at 30 minutes: None 262.31; for TER at 24 Hours: None 287.09
[2] = test system: human retinal endothelial cells; assay: TER of retinal endothelial cell monolayers with danazol and steroid receptor antagonists (Example 6); details: for TER at 30 minutes: None 216.22; for TER at 120 minutes: None 234.23; for TER at 60 minutes: None 249.25; for TER at 24 Hours: None 312.31
HUVECs = assay: HUVEC invasion (BioCoat Matrigel Invasion Chambers); assay type: cell-based, human; details: 24 hours, 5% FCS; FCS raised 5674 FU±77 to 7143±516; concentration of LY294002 not specified (10 μM and 100 μM tested)
Description: BioCoat Matrigel Invasion Chambers were purchased from BD Biosciences (San Jose, Calif.). Inserts were rehydrated at 37° C. with 500 μl HBSS for 2 hours prior to use in humidified incubator. Trypsinized HUVECs were washed twice with warm EGM-2 containing 0.1% FCS and added to the upper chamber of the invasion insert at 100,000 cells in a total volume of 250 μl. […]. Non-invasive cells were removed from the upper chamber with moistened cotton swabs and then the inserts were washed twice with HBSS. The inserts were then submerged in 10 μM calcein AM prepared in HBSS and incubated for 4 hours. Fluorescence was determined in a microplate reader at 485 nm excitation and 595 nm emission.
All data is presented as representative experiment done in triplicate. Differences between subsets were analyzed using student t-test in Microsoft Excel. P<0.05 was considered statistically significant.

[3] = test system: human retinal endothelial cells; assay: ECIS resistance (Example 12), retinal cells
[4] = test system: human retinal endothelial cells; assay: Actin stress fiber formation (Example 11), retinal cells
[5] = test system: human renal glomerular microvascular endothelial cells; assay: Actin stress fiber formation (Example 11), glomerular cells
[6] = test system: human retinal endothelial cells; assay: Actin stress fiber formation, rhodamine-phalloidin staining, TNFα (Example 7); details: TNFα 50 ng/ml, 30 minutes
[7] = test system: human retinal endothelial cells; assay: Actin stress fiber formation, rhodamine-phalloidin staining, VEGF (Example 8); assay type: cell-based; details: VEGF 25 ng/ml, 30 minutes
Description: . […] To counter-stain for nuclei, 100 μl of a 3 μM DAPI (4,6-diamidino-2-phenylindole, dilactate (Invitrogen)) solution was added to each well. After 5 minutes, the cells were washed two times with 100 μl PBS.

VE-Cadherin = assay: VE-cadherin phosphorylation (immunoprecipitation, Pro-Q diamond / SYPRO ruby densitometry); assay type: cell-based, human; details: VEGF 50 ng/ml
Description: The plates were immediately treated to lyse the cells as follows. PBS and the lysis buffer (PBS containing 1% Triton X-100 supplemented with phosphatase inhibitor solutions 1 and 2 (Sigma), protease inhibitor (Sigma) and sodium orthovanadate at a final concentration of 2 mM) were cooled to 4° C. The cells were washed two times with 5 ml of the ice cold PBS and then lysed in 500 μl of the ice cold lysis buffer. The resulting protein extracts were transferred to 1.7 ml microcentrifuge tubes, and cell debris was removed by spinning at 4° C. at 10,000 rpm for 10 minutes. Then, 450 μl of the cleared solution was transferred to tubes containing 25 μl of Protein Dynabeads (Invitrogen) coated with 10 μl C19 anti-VE cadherin polyclonal antibody (Santa Cruz Biotechnology) (coating performed following manufacturer's protocol). The extracts and beads were then incubated overnight at 4° C. on an orbital shaker to capture VE cadherin from the extracts. The beads were then washed four times with ice cold lysis buffer. To release the protein from the beads, they were heated for 10 minutes at 75° C. in SDS loading dye containing 20% reducing dye (Invitrogen).
The released proteins were separated in 4-20% polyacrylamide gels (Invitrogen) at 120 volts for 1 hour. To determine phosphorylation and total protein in the gels, Pro-Q diamond (Invitrogen) and SYPRO ruby (Invitrogen) protein staining were sequentially performed following the manufacturer's protocol. The gels were photographed and densitometry performed using a Kodak imaging station.

[8] = passage 12 cells, 1.0 μM, no thrombin, Untreated 0.455
[9] = passage 12 cells, 0.1 U/ml Thrombin + 1.0 μM compound
[10] = 10 nM hormone, alone or followed by 0.1 μM Danazol
[11] = 0.1 μM of each additive, background subtracted, divided by 0.33 cm^2
[12] = passage 8 cells, 0.1 U/ml Thrombin + 10.0 μM compound
[13] = passage 12 cells, 0.1 U/ml Thrombin + 10.0 μM compound
[14] = 10.0 μM LY294002, alone or followed by 0.1 μM Danazol
[15] = S1P 1 μM alone, beginning at 15 minutes, strongest at 3 hours
[16] = 15 minutes, ethanol control 1.00

Compound: C[C@@H]1C[C@H]2[C@@H]3CCC4=CC(=O)C=C[C@]4(C)[C@@]3(F)[C@@H](O)C[C@]2(C)[C@@]1(O)C(=O)CO [Dexamethasone, dexamethasone]
- Percent Inhibition vs. Untreated Control (RhoA; passage 12 cells, 1.0 μM): 5.83%
- Mean OD (active RhoA) (RhoA; [8]): 0.428
- Mean OD (active RhoA) (RhoA; [9]): 0.826
- Percent Inhibition vs. Thrombin (RhoA; [9]): 33.48%

Compound: C[C@]12CC[C@@H]3c4ccc(O)cc4CC[C@H]3[C@@H]1CC[C@@H]2O [Estradiol, estradiol]
- TER at 5 minutes [1, 10]: 246.50
- TER at 60 minutes [1, 10]: 250.00
- TER at 30 minutes [1, 10]: 245.50
- TER at 24 Hours [1, 10]: 328.33

Compound: C[C@]12CC[C@@H]3c4ccc(O)cc4C[C@@H](CCCCCCCCC[S+]([O-])CCCC(F)(F)C(F)(F)F)[C@H]3[C@@H]1CC[C@@H]2O (some centres unmarked) [Fluvestrant, fluvestrant]
- TER at 30 minutes [2, 11]: 228.23
- TER at 120 minutes [2, 11]: 258.26
- TER at 60 minutes [2, 11]: 270.27
- TER at 24 Hours [2, 11]: 336.34
- TER at 5 minutes [1, 11]: 223.47
- TER at 60 minutes [1, 11]: 243.99
- TER at 30 minutes [1, 11]: 251.50
- TER at 24 Hours [1, 11]: 279.28

Compound: CC(C)(O)C(=O)Nc1ccc([N+](=O)[O-])c(C(F)(F)F)c1 [Hydroxyflutamide, hydroxyflutamide]
- TER at 30 minutes [2, 11]: 177.18
- TER at 120 minutes [2, 11]: 201.20
- TER at 60 minutes [2, 11]: 186.19
- TER at 24 Hours [2, 11]: 297.30
- TER at 5 minutes [1, 11]: 190.44
- TER at 60 minutes [1, 11]: 215.97
- TER at 30 minutes [1, 11]: 207.46
- TER at 24 Hours [1, 11]: 267.27

Compound: O=c1cc(N2CCOCC2)oc2c(-c3ccccc3)cccc12 [LY294002]
- Percent Inhibition vs. Untreated Control (RhoA; passage 8 cells, 10.0 μM): 45.32%
- Mean OD (active RhoA) (RhoA; passage 8 cells, 10.0 μM, no thrombin, Untreated 0.102): 0.056
- Mean OD (active RhoA) (RhoA; [12]): 0.433
- Percent Inhibition vs. Thrombin (RhoA; [12]): 27.86%
- Percent Inhibition vs. Untreated Control (RhoA; passage 12 cells, 10.0 μM): 18.70%
- Mean OD (active RhoA) (RhoA; passage 12 cells, 10.0 μM, no thrombin, Untreated 0.455): 0.370
- Mean OD (active RhoA) (RhoA; [13]): 0.685
- Percent Inhibition vs. Thrombin (RhoA; [13]): 58.73%
- fluorescence of invaded cells (HUVECs): 5814±153 FU
- TER at 30 minutes [2, 14]: 297.30
- TER at 120 minutes [2, 14]: 276.28
- TER at 60 minutes [2, 14]: 354.35
- TER at 24 Hours [2, 14]: 345.35

Compound: CCCCCCCCCCCCC/C=C/[C@@H](O)[C@@H](N)COP(=O)(O)O [S1P, sphingosine-1 phosphate]
- persistence of increased ECIS ([3]; 1 μM of each compound, monitored for 90 hours): about 3 hours
- start of increase of ECIS compared to untreated cells, after treatment ([3]; S1P 1 μM alone): ≤ 15 min
- F-actin staining pattern [4, 15]: showed actin cortical rings
- F-actin staining pattern [5, 15]: showed actin cortical rings

Compound: COc1cc2ncnc(Nc3ccc(Oc4ccccc4)cc3)c2cc1OC [Src-1 Inhibitor]
- Percent Inhibition vs. Untreated Control (RhoA; passage 12 cells, 1.0 μM): 23.21%
- Mean OD (active RhoA) (RhoA; [8]): 0.349
- Mean OD (active RhoA) (RhoA; [9]): 0.534
- Percent Inhibition vs. Thrombin (RhoA; [9]): 85.85%

Compound: C[C@]12CC[C@H]3[C@@H](CCC4=CC(=O)CC[C@@]43C)[C@@H]1CC[C@@H]2O [Testosterone, testosterone]
- TER at 5 minutes [1, 10]: 257.51
- TER at 60 minutes [1, 10]: 225.98
- TER at 30 minutes [1, 10]: 240.49
- TER at 24 Hours [1, 10]: 267.27

Compound: TNFα
- F-actin staining pattern [6]: strong stress fiber development with intensely staining focal points
- F-actin staining pattern ([4]; TNFα 1 ng/ml alone): stress fibers were seen at all times
- F-actin staining pattern ([5]; TNFα 1 ng/ml alone): stress fibers were seen at all times

Compound: Thrombin
- Mean OD (active RhoA) (RhoA; passage 8 cells, 0.1 U/ml Thrombin alone, Untreated 0.102): 0.561
- Mean OD (active RhoA) (RhoA; passage 12 cells, 0.1 U/ml Thrombin alone, Untreated 0.455): 1.013

Compound: VEGF
- F-actin staining pattern [7]: strong stress fiber development
- Ratio phosphorylated: total protein (VE-Cadherin; 15 minutes, ethanol control 0.215): 0.481
- Relative intensity - ProQ results (phosphorylated protein) (VE-Cadherin; [16]): 1.89
- Relative intensity - SYPRO results (total protein) (VE-Cadherin; [16]): 0.84
- fold increase of ratio phosphorylated: total protein (VE-Cadherin; versus ethanol control): (2.24 fold
